# According to paper PMC5561493 (Journal of Clinical Pharmacology, 2017):
# Several values for one entry are separate records, joined by “and”; a condition that tells them apart may be missing. Identical values can stand only once. Like-named read-outs stand apart in the source and are kept apart here.
# How the values were obtained:
# [1] = in vitro transport studies; ref Takeda, data on file; cited from earlier work
# [2] = tested on: cytochrome P450 enzymes; settings: in decreasing order of relative contributions; cited from earlier work
# [3] = varying grades of renal impairment; cited from earlier work
# [4] = Population PK analysis of bortezomib in pediatric ALL/AML patients; assay type: in vivo, human; settings: for half-life: human, plasma, intravenous, 1.3 mg/m^2, half-life, geometric mean (%CV)
# [5] = tested on: blood 20S proteasome activity; settings: 1.2 and 1.6 mg/m^2 IV; cited from earlier work
# [6] = tested on: CYP2C19; settings: cited from earlier work
# [7] = 1.7 mg/m^2 dose level; cited from earlier work
# [8] = tested on: CYP3A; settings: coadministration of ketoconazole; cited from earlier work
# [9] = 1.6 mg/m^2 dose level; cited from earlier work
# [10] = tested on: efflux pumps; settings: in vitro transport studies; ref Takeda, data on file; cited from earlier work
# [11] = adult patients, cited from earlier work
# [12] = final population PK model, bootstrap, 1.3 mg/m^2 IV repeat dose
compound,measurement,setting,value
CC(C)C[C@H](NC(=O)[C@H](Cc1ccccc1)NC(=O)c1cnccn1)B(O)O [bortezomib],apparent permeability,[1],high apparent permeability
same,CYP enzymes mediating hepatic microsomal metabolism,[2],"primary involvement of CYPs 3A4, 2C19, and 1A2"
same,effect of renal impairment on bortezomib clearance,[3],did not alter bortezomib clearance
same,"clearance, geometric mean (%CV)","[4]; all patients (N = 104), 2-16 y, individual estimates, 1.3 mg/m^2 IV repeat dose",7.79 (25%) L/(h·m^2)
same,"volume of distribution at steady-state, geometric mean (%CV)","[4]; all patients (N = 104), sum of V1, V2, V3",834 (39%) L/m^2
same,Interindividual variability (CV) of CL,[4]; base model,41.2%
same,Interindividual variability (CV) of Q3,[4]; base model,38.3%
same,Interindividual variability (CV) of V1,[4]; base model,50.7%
same,Interindividual variance of CL,[4]; final model,29.7 %CV
same,Interindividual variance of Q3,[4]; final model,29.8 %CV
same,Interindividual variance of V1,[4]; final model,34.6 %CV
same,"V1 (central volume), population median",[4]; [12],10.0 L
same,"V2 (peripheral volume 1), population median",[4]; [12],32.5 L
same,"V3 (peripheral volume 2), population median",[4]; [12],975 L
same,BSA effect on Q3 (exponent),"[4]; final population PK model, power model",0.75
same,half-life,"[4]; α disposition phase, all patients (N = 104)",0.103 h
same,half-life,"[4]; β disposition phase, all patients (N = 104)",1.58 h
same,half-life,"[4]; γ (terminal/elimination) disposition phase, all patients (N = 104)",100 h
same,"BSA-normalized clearance, mean (%CV)",[4]; patients 2 to 11 years old (N = 62),8.11 (25%) L/(h·m^2) and 8.11 L/(h·m^2)
same,"BSA-normalized clearance, mean (%CV)",[4]; patients aged 12 to 16 years (N = 42),7.94 (25%) L/(h·m^2) and 7.94 L/(h·m^2)
same,inhibition of blood 20S proteasome activity,[5],Dose‐dependent inhibition
same,time of maximal inhibition of blood 20S proteasome activity after dosing,[5],≤ 1 h
same,effect of omeprazole coadministration on bortezomib PK,[6],did not alter bortezomib PK
same,dose-limiting toxicities,[7],Two dose‐limiting toxicities (grade 3 confusion and grade 4 hypotension with fever)
same,increase in bortezomib area under the concentration-time curve,[8],35%
same,dose-limiting toxicities,[9],2 dose‐limiting toxicities of thrombocytopenia
same,substrate for efflux pumps,[10],not a substrate for efflux pumps
same,"BSA-normalized clearance, mean (%CV)",[11]; 1.0 mg/m^2 dose,12.9 (70%) L/(h·m^2)
same,"BSA-normalized clearance, mean (%CV)",[11]; 1.3 mg/m^2 dose,14.9 (63%) L/(h·m^2)
